Assay results: ChEMBL document CHEMBL1128626, “The synthesis and biological activity of enediyne minor groove binding hybrids” (Bioorg Med Chem Lett, 1995)

Assays:
Nucleic Acid [1] = assay: Concentration of drug which induced cleavage of 50% of PM2 supercoiled DNA in the absence of beta-mercaptoethanol; type: functional
Nucleic Acid [2] = assay: Concentration of drug which induced cleavage of 50% of PM2 supercoiled DNA in the presence of beta-mercaptoethanol; type: functional
HCT-116 = assay: Cytotoxicity against HCT116 human colon tumor cell line; type: functional, cell-based

`Cn1cc(NC(=O)c2cc(NC(=O)Cc3ccc(COCO[C@@]45C#C/C=C\C#C[C@H](O)C(=CCC4)C5=O)cc3)cn2C)cc1C(=O)NCCC(=N)N` showed a Cleavage (Nucleic Acid [1]) of 100 µM, a Cleavage (Nucleic Acid [2]) of 10 µM and an IC50 (HCT-116) of 7.4 µM.
Work on `O=C1C2=CCC[C@@]1(O)C#C/C=C\C#C[C@@H]2O` yielded a Cleavage (Nucleic Acid [1]) of 1000 µM and a Cleavage (Nucleic Acid [2]) of 100 µM.
`Cn1cc(NC(=O)Cc2ccc(CO[C@H]3C#C/C=C\C#C[C@]4(O)CCC=C3C4=O)cc2)cc1C(=O)Cc1cc(C(=O)NCCC(=N)N)n(C)c1` was tested, and the Cleavage (Nucleic Acid [1]) was 10 µM, the Cleavage (Nucleic Acid [2]) was < 1 µM and the IC50 (HCT-116) was 640 µM.
For `C=C(OC)C(=O)Nc1cc(OC)c(OC)cc1C(=O)O[C@H]1C[C@H](O[C@@H]2C(=O)C(NC(=O)OC)=C3/C(=C\CSSSC)[C@]2(O)C#C/C=C\C#C[C@@H]3O[C@@H]2O[C@H](C)[C@@H](NO[C@H]3C[C@H](O)[C@H](SC)[C@@H](C)O3)[C@H](O)[C@H]2O[C@H]2C[C@H](OC)[C@@H](NC(C)C)CO2)O[C@@H](C)[C@H]1O` [ESPERAMICIN A1], the Cleavage (Nucleic Acid [1]) was 10 µM, the Cleavage (Nucleic Acid [2]) was < 1 µM and the IC50 (HCT-116) was 1e-06 µM.
